# Source: ChEMBL document CHEMBL1165907, “A comparative study of flavonoid analogues on streptozotocin-nicotinamide induced diabetic rats: quercetin as a potential antidiabetic agent acting via 11beta-hydroxysteroid dehydrogenase type 1 inhibition” (2010)
# Tested on: Rattus norvegicus
# Assay: Antidiabetic activity in Wistar rat assessed as change in blood glucose level at 50 mg/kg, ig after 1 hr (RVb = 20.18 % +/- 8.49%)
# Assay type: functional
# Settings: route intragastric
row,SMILES,Activity
1,O=c1cc(-c2ccccc2)oc2ccc(O)cc12 [6-HYDROXYFLAVONE],-13.08%
2,O=c1cc(-c2ccccc2)oc2cc(O)ccc12 [7-HYDROXYFLAVONE],-12.79%
3,O=c1cc(-c2ccccc2)oc2cc(O)cc(O)c12 [CHRYSIN],-1.7%
4,O=c1cc(-c2ccccc2)oc2ccccc12 [FLAVONE],13.53%
5,O=c1c(O)c(-c2ccccc2)oc2ccccc12 [FLAVONOL],1.93%
6,COc1ccc(Cl)cc1C(=O)NCCc1ccc(S(=O)(=O)NC(=O)NC2CCCCC2)cc1 [GLYBURIDE],-21.93%
7,O=c1c(O)c(-c2ccc(O)c(O)c2)oc2cc(O)cc(O)c12 [QUERCETIN],-2.37%

# Tested on: Rattus norvegicus
# Assay: Hypoglycemic activity in Wistar rat assessed as change in blood glucose level at 50 mg/kg, ig after 7 hrs (RVb = -3.59 +/- 2.65 %)
# Assay type: functional
# Settings: route intragastric
row,SMILES,Activity
1,O=c1cc(-c2ccccc2)oc2ccc(O)cc12 [6-HYDROXYFLAVONE],-0.93%
2,O=c1cc(-c2ccccc2)oc2cc(O)ccc12 [7-HYDROXYFLAVONE],-4.81%
3,O=c1cc(-c2ccccc2)oc2cc(O)cc(O)c12 [CHRYSIN],-9.42%
4,O=c1cc(-c2ccccc2)oc2ccccc12 [FLAVONE],-11.65%
5,O=c1c(O)c(-c2ccccc2)oc2ccccc12 [FLAVONOL],-10.05%
6,COc1ccc(Cl)cc1C(=O)NCCc1ccc(S(=O)(=O)NC(=O)NC2CCCCC2)cc1 [GLYBURIDE],-23.77%
7,O=c1c(O)c(-c2ccc(O)c(O)c2)oc2cc(O)cc(O)c12 [QUERCETIN],-17.85%

# Tested on: Rattus norvegicus
# Assay: Antidiabetic activity in Wistar rat assessed as change in blood glucose level at 50 mg/kg, ig after 7 hrs (RVb = -10.51% +/- 5.53%)
# Assay type: functional
# Settings: route intragastric
row,SMILES,Activity
1,O=c1cc(-c2ccccc2)oc2ccc(O)cc12 [6-HYDROXYFLAVONE],-25.42%
2,O=c1cc(-c2ccccc2)oc2cc(O)ccc12 [7-HYDROXYFLAVONE],-12.18%
3,O=c1cc(-c2ccccc2)oc2cc(O)cc(O)c12 [CHRYSIN],-35.5%
4,O=c1cc(-c2ccccc2)oc2ccccc12 [FLAVONE],-39.69%
5,O=c1c(O)c(-c2ccccc2)oc2ccccc12 [FLAVONOL],-16.04%
6,COc1ccc(Cl)cc1C(=O)NCCc1ccc(S(=O)(=O)NC(=O)NC2CCCCC2)cc1 [GLYBURIDE],-42.52%
7,O=c1c(O)c(-c2ccc(O)c(O)c2)oc2cc(O)cc(O)c12 [QUERCETIN],-42.62%

# Tested on: Rattus norvegicus
# Assay: Antidiabetic activity in STZ-induced Wistar rat assessed as reduction in blood glucose level at 50 mg/kg, ig after 1 day relative to control
# Assay type: functional
# Set-up: scale not given: the % may be the effect or the level left
# Settings: route intragastric
row,SMILES,Activity
1,O=c1cc(-c2ccccc2)oc2ccc(O)cc12 [6-HYDROXYFLAVONE],16.9%
2,O=c1cc(-c2ccccc2)oc2cc(O)ccc12 [7-HYDROXYFLAVONE],8.8%
3,O=c1cc(-c2ccccc2)oc2cc(O)cc(O)c12 [CHRYSIN],7.07%
4,O=c1cc(-c2ccccc2)oc2ccccc12 [FLAVONE],0.05%
5,O=c1c(O)c(-c2ccccc2)oc2ccccc12 [FLAVONOL],2.09%
6,COc1ccc(Cl)cc1C(=O)NCCc1ccc(S(=O)(=O)NC(=O)NC2CCCCC2)cc1 [GLYBURIDE],33.2%
7,O=c1c(O)c(-c2ccc(O)c(O)c2)oc2cc(O)cc(O)c12 [QUERCETIN],10.8%

# Tested on: Rattus norvegicus
# Assay: Hypoglycemic activity in Wistar rat assessed as change in blood glucose level at 50 mg/kg, ig after 5 hrs (RVb = 1.21+/- 3.64 %)
# Assay type: functional
# Settings: route intragastric
row,SMILES,Activity
1,O=c1cc(-c2ccccc2)oc2ccc(O)cc12 [6-HYDROXYFLAVONE],6.41%
2,O=c1cc(-c2ccccc2)oc2cc(O)ccc12 [7-HYDROXYFLAVONE],7.39%
3,O=c1cc(-c2ccccc2)oc2cc(O)cc(O)c12 [CHRYSIN],-17.08%
4,O=c1cc(-c2ccccc2)oc2ccccc12 [FLAVONE],-24.7%
5,O=c1c(O)c(-c2ccccc2)oc2ccccc12 [FLAVONOL],-2.36%
6,COc1ccc(Cl)cc1C(=O)NCCc1ccc(S(=O)(=O)NC(=O)NC2CCCCC2)cc1 [GLYBURIDE],-24.78%
7,O=c1c(O)c(-c2ccc(O)c(O)c2)oc2cc(O)cc(O)c12 [QUERCETIN],-10.74%

# Biological target: 11-beta-hydroxysteroid dehydrogenase 1 (Homo sapiens) (UniProt P28845)
# Assay: Inhibition of human 11beta HSD1 in HEK293 cells at 10 uM
# Assay type: cell-based
# Settings: not given
# 11-beta-hydroxysteroid dehydrogenase 1 (Homo sapiens), sequence (P28845 whole entry, looked up): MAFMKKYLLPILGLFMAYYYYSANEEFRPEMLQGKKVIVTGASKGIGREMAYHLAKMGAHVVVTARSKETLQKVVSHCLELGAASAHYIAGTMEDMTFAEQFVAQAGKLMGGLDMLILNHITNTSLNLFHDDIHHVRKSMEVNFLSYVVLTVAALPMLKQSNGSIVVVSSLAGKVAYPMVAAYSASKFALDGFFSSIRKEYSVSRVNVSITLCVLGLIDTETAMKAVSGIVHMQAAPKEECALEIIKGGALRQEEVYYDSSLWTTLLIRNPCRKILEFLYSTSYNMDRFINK
row,SMILES,inhibition
1,O=c1cc(-c2ccccc2)oc2ccccc12 [FLAVONE],16%
2,O=c1c(O)c(-c2ccc(O)c(O)c2)oc2cc(O)cc(O)c12 [QUERCETIN],27%

# Tested on: Rattus norvegicus
# Assay: Antidiabetic activity in STZ-induced Wistar rat assessed as reduction in blood glucose level at 50 mg/kg, ig after 3 day relative to control
# Assay type: functional
# Set-up: scale not given: the % may be the effect or the level left
# Settings: route intragastric
row,SMILES,Activity
1,O=c1cc(-c2ccccc2)oc2ccc(O)cc12 [6-HYDROXYFLAVONE],13.15%
2,O=c1cc(-c2ccccc2)oc2cc(O)ccc12 [7-HYDROXYFLAVONE],36%
3,O=c1cc(-c2ccccc2)oc2cc(O)cc(O)c12 [CHRYSIN],5.2%
4,O=c1cc(-c2ccccc2)oc2ccccc12 [FLAVONE],19.5%
5,O=c1c(O)c(-c2ccccc2)oc2ccccc12 [FLAVONOL],35.7%
6,COc1ccc(Cl)cc1C(=O)NCCc1ccc(S(=O)(=O)NC(=O)NC2CCCCC2)cc1 [GLYBURIDE],38.5%
7,O=c1c(O)c(-c2ccc(O)c(O)c2)oc2cc(O)cc(O)c12 [QUERCETIN],27%

# Tested on: Rattus norvegicus
# Assay: Hypoglycemic activity in Wistar rat assessed as change in blood glucose level at 50 mg/kg, ig after 1 hr (RVb = 10.96 +/- 3.67 %)
# Assay type: functional
# Settings: route intragastric
row,SMILES,Activity
1,O=c1cc(-c2ccccc2)oc2ccc(O)cc12 [6-HYDROXYFLAVONE],-16.21%
2,O=c1cc(-c2ccccc2)oc2cc(O)ccc12 [7-HYDROXYFLAVONE],5.05%
3,O=c1cc(-c2ccccc2)oc2cc(O)cc(O)c12 [CHRYSIN],-9.27%
4,O=c1cc(-c2ccccc2)oc2ccccc12 [FLAVONE],-16.16%
5,O=c1c(O)c(-c2ccccc2)oc2ccccc12 [FLAVONOL],-6.04%
6,COc1ccc(Cl)cc1C(=O)NCCc1ccc(S(=O)(=O)NC(=O)NC2CCCCC2)cc1 [GLYBURIDE],-8.29%
7,O=c1c(O)c(-c2ccc(O)c(O)c2)oc2cc(O)cc(O)c12 [QUERCETIN],-16.19%

# Tested on: Rattus norvegicus
# Assay: Antidiabetic activity in Wistar rat assessed as change in blood glucose level at 50 mg/kg, ig after 5 hrs (RVb = -1.17% +/- 8.77%)
# Assay type: functional
# Settings: route intragastric
row,SMILES,Activity
1,O=c1cc(-c2ccccc2)oc2ccc(O)cc12 [6-HYDROXYFLAVONE],-19.81%
2,O=c1cc(-c2ccccc2)oc2cc(O)ccc12 [7-HYDROXYFLAVONE],-10.03%
3,O=c1cc(-c2ccccc2)oc2cc(O)cc(O)c12 [CHRYSIN],-10.41%
4,O=c1cc(-c2ccccc2)oc2ccccc12 [FLAVONE],-21.41%
5,O=c1c(O)c(-c2ccccc2)oc2ccccc12 [FLAVONOL],-15.66%
6,COc1ccc(Cl)cc1C(=O)NCCc1ccc(S(=O)(=O)NC(=O)NC2CCCCC2)cc1 [GLYBURIDE],-43.88%
7,O=c1c(O)c(-c2ccc(O)c(O)c2)oc2cc(O)cc(O)c12 [QUERCETIN],-52.68%

# Tested on: Rattus norvegicus
# Assay: Antidiabetic activity in STZ-induced Wistar rat assessed as reduction in blood glucose level at 50 mg/kg, ig after 2 day relative to control
# Assay type: functional
# Set-up: scale not given: the % may be the effect or the level left
# Settings: route intragastric
row,SMILES,Activity
1,O=c1cc(-c2ccccc2)oc2ccc(O)cc12 [6-HYDROXYFLAVONE],6.6%
2,O=c1cc(-c2ccccc2)oc2cc(O)ccc12 [7-HYDROXYFLAVONE],35.5%
3,O=c1cc(-c2ccccc2)oc2cc(O)cc(O)c12 [CHRYSIN],19.6%
4,O=c1cc(-c2ccccc2)oc2ccccc12 [FLAVONE],32.76%
5,O=c1c(O)c(-c2ccccc2)oc2ccccc12 [FLAVONOL],7.7%
6,COc1ccc(Cl)cc1C(=O)NCCc1ccc(S(=O)(=O)NC(=O)NC2CCCCC2)cc1 [GLYBURIDE],32.2%
7,O=c1c(O)c(-c2ccc(O)c(O)c2)oc2cc(O)cc(O)c12 [QUERCETIN],13.3%

# Tested on: Rattus norvegicus
# Assay: Hypoglycemic activity in Wistar rat assessed as change in blood glucose level at 50 mg/kg, ig after 3 hrs (RVb = 1.39 +/- 5.895 %)
# Assay type: functional
# Settings: route intragastric
row,SMILES,Activity
1,O=c1cc(-c2ccccc2)oc2ccc(O)cc12 [6-HYDROXYFLAVONE],6.51%
2,O=c1cc(-c2ccccc2)oc2cc(O)ccc12 [7-HYDROXYFLAVONE],-6.19%
3,O=c1cc(-c2ccccc2)oc2cc(O)cc(O)c12 [CHRYSIN],-19.98%
4,O=c1cc(-c2ccccc2)oc2ccccc12 [FLAVONE],-21.56%
5,O=c1c(O)c(-c2ccccc2)oc2ccccc12 [FLAVONOL],-20.2%
6,COc1ccc(Cl)cc1C(=O)NCCc1ccc(S(=O)(=O)NC(=O)NC2CCCCC2)cc1 [GLYBURIDE],-21.71%
7,O=c1c(O)c(-c2ccc(O)c(O)c2)oc2cc(O)cc(O)c12 [QUERCETIN],-21.1%

# Tested on: Rattus norvegicus
# Assay: Antidiabetic activity in Wistar rat assessed as change in blood glucose level at 50 mg/kg, ig after 3 hrs (RVb = -9.83 % +/- 5.67%)
# Assay type: functional
# Settings: route intragastric
row,SMILES,Activity
1,O=c1cc(-c2ccccc2)oc2ccc(O)cc12 [6-HYDROXYFLAVONE],-11.07%
2,O=c1cc(-c2ccccc2)oc2cc(O)ccc12 [7-HYDROXYFLAVONE],-12.69%
3,O=c1cc(-c2ccccc2)oc2cc(O)cc(O)c12 [CHRYSIN],-9.96%
4,O=c1cc(-c2ccccc2)oc2ccccc12 [FLAVONE],-10.02%
5,O=c1c(O)c(-c2ccccc2)oc2ccccc12 [FLAVONOL],-5.92%
6,COc1ccc(Cl)cc1C(=O)NCCc1ccc(S(=O)(=O)NC(=O)NC2CCCCC2)cc1 [GLYBURIDE],-24.93%
7,O=c1c(O)c(-c2ccc(O)c(O)c2)oc2cc(O)cc(O)c12 [QUERCETIN],-17.28%

# Tested on: Rattus norvegicus
# Assay: Antidiabetic activity in STZ-induced Wistar rat assessed as reduction in blood glucose level at 50 mg/kg, ig after 5 day relative to control
# Assay type: functional
# Set-up: scale not given: the % may be the effect or the level left
# Settings: route intragastric
row,SMILES,Activity
1,O=c1cc(-c2ccccc2)oc2ccc(O)cc12 [6-HYDROXYFLAVONE],34.7%
2,O=c1cc(-c2ccccc2)oc2cc(O)ccc12 [7-HYDROXYFLAVONE],38.5%
3,O=c1cc(-c2ccccc2)oc2cc(O)cc(O)c12 [CHRYSIN],17.17%
4,O=c1cc(-c2ccccc2)oc2ccccc12 [FLAVONE],10.8%
5,O=c1c(O)c(-c2ccccc2)oc2ccccc12 [FLAVONOL],9.2%
6,COc1ccc(Cl)cc1C(=O)NCCc1ccc(S(=O)(=O)NC(=O)NC2CCCCC2)cc1 [GLYBURIDE],40%
7,O=c1c(O)c(-c2ccc(O)c(O)c2)oc2cc(O)cc(O)c12 [QUERCETIN],3.7%

# Tested on: Rattus norvegicus
# Assay: Antidiabetic activity in STZ-induced Wistar rat assessed as reduction in blood glucose level at 50 mg/kg, ig after 4 day relative to control
# Assay type: functional
# Set-up: scale not given: the % may be the effect or the level left
# Settings: route intragastric
row,SMILES,Activity
1,O=c1cc(-c2ccccc2)oc2ccc(O)cc12 [6-HYDROXYFLAVONE],2.53%
2,O=c1cc(-c2ccccc2)oc2cc(O)ccc12 [7-HYDROXYFLAVONE],20.4%
3,O=c1cc(-c2ccccc2)oc2cc(O)cc(O)c12 [CHRYSIN],0.5%
4,O=c1cc(-c2ccccc2)oc2ccccc12 [FLAVONE],10.6%
5,O=c1c(O)c(-c2ccccc2)oc2ccccc12 [FLAVONOL],60.1%
6,COc1ccc(Cl)cc1C(=O)NCCc1ccc(S(=O)(=O)NC(=O)NC2CCCCC2)cc1 [GLYBURIDE],50%
7,O=c1c(O)c(-c2ccc(O)c(O)c2)oc2cc(O)cc(O)c12 [QUERCETIN],21.3%
